Tests used:
[1] = target: Discoidin domain-containing receptor 2 (Homo sapiens) (UniProt Q16832); assay: Inhibition of human DDR2 assessed as residual activity at 10 uM using KKSRGDYMTMQIG as substrate preincubated for 20 mins followed by [gamma-33P]-ATP addition and measured after 120 mins by Hotspot assay relative to control
[2] = target: CDK2/Cyclin A2 (Homo sapiens) (UniProt P24941+P20248); assay: Inhibition of human CDK2/cyclin-A assessed as residual activity at 10 uM using histone H1 as substrate preincubated for 20 mins followed by [gamma-33P]-ATP addition and measured after 120 mins by Hotspot assay relative to control; type: protein-complex assay
[3] = target: Proto-oncogene tyrosine-protein kinase Src (Homo sapiens, UniProt P12931); assay: Inhibition of human c-SRC using poly[Glu:Tyr] (4:1) as substrate preincubated for 20 mins followed by [gamma-33P]-ATP addition and measured after 120 mins by Hotspot assay
Chain of Proto-oncogene tyrosine-protein kinase Src (P12931 2-536 limits assumed): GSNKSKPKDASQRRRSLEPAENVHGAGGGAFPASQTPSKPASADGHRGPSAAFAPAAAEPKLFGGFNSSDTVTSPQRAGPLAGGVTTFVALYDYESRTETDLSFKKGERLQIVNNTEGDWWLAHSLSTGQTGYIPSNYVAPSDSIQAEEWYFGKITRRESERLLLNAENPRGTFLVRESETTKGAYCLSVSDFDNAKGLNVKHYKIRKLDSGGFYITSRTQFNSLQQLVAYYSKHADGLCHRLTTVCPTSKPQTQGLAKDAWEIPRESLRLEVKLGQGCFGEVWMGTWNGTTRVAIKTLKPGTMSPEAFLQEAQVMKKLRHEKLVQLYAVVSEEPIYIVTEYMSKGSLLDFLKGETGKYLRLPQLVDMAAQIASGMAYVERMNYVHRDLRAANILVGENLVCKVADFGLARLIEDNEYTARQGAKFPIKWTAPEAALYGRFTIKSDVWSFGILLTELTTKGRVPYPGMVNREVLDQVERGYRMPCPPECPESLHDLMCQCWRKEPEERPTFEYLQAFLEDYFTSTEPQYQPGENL

MV4-11 [4] = assay: Induction of apoptosis in human MV4-11 cells assessed as late apoptotic cells at 0.5 uM after 24 hrs by Annexin V-FITC/propidium iodide staining based flow cytometric analysis (reference value: 1.42%); type: functional
[5] = target: Dual specificity mitogen-activated protein kinase kinase 1 (Homo sapiens) (UniProt Q02750); assay: Inhibition of human MEK1 assessed as residual activity at 10 uM using ERK2 as substrate preincubated for 20 mins followed by [gamma-33P]-ATP addition and measured after 120 mins by Hotspot assay relative to control
[6] = target: Tyrosine-protein kinase JAK2 (Homo sapiens) (UniProt O60674); assay: Inhibition of human JAK2 assessed as residual activity at 10 uM using poly[Glu:Tyr] (4:1) as substrate preincubated for 20 mins followed by [gamma-33P]-ATP addition and measured after 120 mins by Hotspot assay relative to control
Chain of Tyrosine-protein kinase JAK2 (Homo sapiens) (O60674 whole entry): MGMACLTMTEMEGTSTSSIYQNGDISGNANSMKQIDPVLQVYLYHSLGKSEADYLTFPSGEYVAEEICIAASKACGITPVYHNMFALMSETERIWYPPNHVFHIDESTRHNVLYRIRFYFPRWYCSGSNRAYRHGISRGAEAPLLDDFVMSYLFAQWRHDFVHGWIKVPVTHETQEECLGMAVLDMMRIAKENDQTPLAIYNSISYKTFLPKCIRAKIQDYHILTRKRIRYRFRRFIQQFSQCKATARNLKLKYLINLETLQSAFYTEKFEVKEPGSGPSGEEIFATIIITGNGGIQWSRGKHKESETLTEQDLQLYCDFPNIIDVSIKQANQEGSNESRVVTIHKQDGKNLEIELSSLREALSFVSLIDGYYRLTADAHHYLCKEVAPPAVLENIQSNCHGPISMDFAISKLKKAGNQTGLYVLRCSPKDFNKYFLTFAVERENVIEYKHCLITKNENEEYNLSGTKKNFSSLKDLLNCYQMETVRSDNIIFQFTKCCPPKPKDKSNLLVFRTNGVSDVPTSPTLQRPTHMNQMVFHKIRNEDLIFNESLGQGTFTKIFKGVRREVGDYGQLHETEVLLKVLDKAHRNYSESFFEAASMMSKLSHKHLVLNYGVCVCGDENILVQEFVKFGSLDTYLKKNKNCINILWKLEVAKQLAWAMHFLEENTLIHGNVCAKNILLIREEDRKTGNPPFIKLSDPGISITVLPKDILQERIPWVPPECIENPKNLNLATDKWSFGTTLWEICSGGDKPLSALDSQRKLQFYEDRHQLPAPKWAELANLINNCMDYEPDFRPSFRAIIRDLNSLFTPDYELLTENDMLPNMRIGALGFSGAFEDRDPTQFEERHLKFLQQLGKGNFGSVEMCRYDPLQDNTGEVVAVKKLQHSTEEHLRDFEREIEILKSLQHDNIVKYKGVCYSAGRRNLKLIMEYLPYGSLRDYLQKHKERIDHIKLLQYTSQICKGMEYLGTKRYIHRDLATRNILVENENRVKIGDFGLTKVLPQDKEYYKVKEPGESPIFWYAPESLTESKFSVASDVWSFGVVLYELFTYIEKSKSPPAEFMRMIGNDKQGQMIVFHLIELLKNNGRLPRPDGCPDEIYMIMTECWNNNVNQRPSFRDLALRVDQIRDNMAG

MV4-11 [7] = assay: Induction of apoptosis in human MV4-11 cells assessed as viable cells at 1 uM after 24 hrs by Annexin V-FITC/propidium iodide staining based flow cytometric analysis (reference value: 95.19%); type: functional; details: MV4-11, 24 h, read-out: Activity
[8] = target: T1, Macrophage colony-stimulating factor 1 receptor (Homo sapiens, UniProt P07333); assay: Inhibition of human FMS assessed as residual activity at 10 uM using poly[Glu:Tyr] (4:1) as substrate preincubated for 20 mins followed by [gamma-33P]-ATP addition and measured after 120 mins by Hotspot assay relative to control
T1 sequence (P07333 whole entry): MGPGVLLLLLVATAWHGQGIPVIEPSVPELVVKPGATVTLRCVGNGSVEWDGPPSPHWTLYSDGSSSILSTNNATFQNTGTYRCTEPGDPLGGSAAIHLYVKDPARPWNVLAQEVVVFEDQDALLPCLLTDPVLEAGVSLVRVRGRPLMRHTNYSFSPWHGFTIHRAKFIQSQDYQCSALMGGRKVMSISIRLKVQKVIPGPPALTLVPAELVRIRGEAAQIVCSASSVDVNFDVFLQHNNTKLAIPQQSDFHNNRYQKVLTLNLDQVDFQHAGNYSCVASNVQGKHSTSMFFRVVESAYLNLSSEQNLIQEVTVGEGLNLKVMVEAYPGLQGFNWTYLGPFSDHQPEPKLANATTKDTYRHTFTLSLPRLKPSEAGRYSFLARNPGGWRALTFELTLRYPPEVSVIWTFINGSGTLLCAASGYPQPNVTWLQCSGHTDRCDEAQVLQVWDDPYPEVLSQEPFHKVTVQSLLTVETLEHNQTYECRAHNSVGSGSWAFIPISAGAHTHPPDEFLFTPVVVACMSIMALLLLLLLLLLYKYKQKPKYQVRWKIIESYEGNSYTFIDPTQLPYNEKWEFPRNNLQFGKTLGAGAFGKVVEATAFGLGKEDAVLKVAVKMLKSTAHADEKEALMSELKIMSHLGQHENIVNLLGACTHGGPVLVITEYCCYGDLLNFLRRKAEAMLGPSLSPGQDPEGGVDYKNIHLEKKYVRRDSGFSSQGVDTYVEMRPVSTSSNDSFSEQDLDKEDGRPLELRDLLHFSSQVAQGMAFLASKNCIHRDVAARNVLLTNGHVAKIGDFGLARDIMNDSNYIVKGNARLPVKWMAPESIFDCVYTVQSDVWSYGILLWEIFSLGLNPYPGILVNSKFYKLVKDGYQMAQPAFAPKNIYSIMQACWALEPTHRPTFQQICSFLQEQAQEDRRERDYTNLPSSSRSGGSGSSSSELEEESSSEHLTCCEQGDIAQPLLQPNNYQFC

[9] = target: Mitogen-activated protein kinase kinase kinase 1 (Homo sapiens) (UniProt Q13233); assay: Inhibition of human MEKK1 assessed as residual activity at 10 uM using MBP as substrate preincubated for 20 mins followed by [gamma-33P]-ATP addition and measured after 120 mins by Hotspot assay relative to control
MV4-11 [10] = assay: Cytotoxicity against human MV4-11 cells at 1 uM after 72 hrs by MTT assay; type: cell-based; details: mv4-11, 72 h
MV4-11 [11] = assay: Induction of apoptosis in human MV4-11 cells assessed as late apoptotic cells at 0.02 uM after 24 hrs by Annexin V-FITC/propidium iodide staining based flow cytometric analysis (reference value: 1.42%); type: functional
MV4-11 [12] = assay: Induction of apoptosis in human MV4-11 cells assessed as late apoptotic cells at 0.2 uM after 24 hrs by Annexin V-FITC/propidium iodide staining based flow cytometric analysis (reference value: 1.42%); type: functional
[13] = target: Tyrosine-protein kinase ABL1 (Homo sapiens, UniProt P00519); assay: Binding affinity to wild-type human non-phosphorylated ABL1 (S229 to K512 residues) expressed in mammalian expression system after 60 mins by Kinomescan method
[14] = target: Mitogen-activated protein kinase 8 (Homo sapiens) (UniProt P45983); assay: Inhibition of human JNK1 assessed as residual activity at 10 uM using ATF2 as substrate preincubated for 20 mins followed by [gamma-33P]-ATP addition and measured after 120 mins by Hotspot assay relative to control
MV4-11 [15] = assay: Induction of apoptosis in human MV4-11 cells assessed as late apoptotic cells at 0.05 uM after 24 hrs by Annexin V-FITC/propidium iodide staining based flow cytometric analysis (reference value: 1.42%); type: functional
[16] = target: Serine/threonine-protein kinase B-raf (Homo sapiens) (UniProt P15056); assay: Inhibition of human BRAF assessed as residual activity at 10 uM using MEK1 (K97R) as substrate preincubated for 20 mins followed by [gamma-33P]-ATP addition and measured after 120 mins by Hotspot assay relative to control
Chain of Serine/threonine-protein kinase B-raf (Homo sapiens) (P15056 whole entry, the tested form may be a part): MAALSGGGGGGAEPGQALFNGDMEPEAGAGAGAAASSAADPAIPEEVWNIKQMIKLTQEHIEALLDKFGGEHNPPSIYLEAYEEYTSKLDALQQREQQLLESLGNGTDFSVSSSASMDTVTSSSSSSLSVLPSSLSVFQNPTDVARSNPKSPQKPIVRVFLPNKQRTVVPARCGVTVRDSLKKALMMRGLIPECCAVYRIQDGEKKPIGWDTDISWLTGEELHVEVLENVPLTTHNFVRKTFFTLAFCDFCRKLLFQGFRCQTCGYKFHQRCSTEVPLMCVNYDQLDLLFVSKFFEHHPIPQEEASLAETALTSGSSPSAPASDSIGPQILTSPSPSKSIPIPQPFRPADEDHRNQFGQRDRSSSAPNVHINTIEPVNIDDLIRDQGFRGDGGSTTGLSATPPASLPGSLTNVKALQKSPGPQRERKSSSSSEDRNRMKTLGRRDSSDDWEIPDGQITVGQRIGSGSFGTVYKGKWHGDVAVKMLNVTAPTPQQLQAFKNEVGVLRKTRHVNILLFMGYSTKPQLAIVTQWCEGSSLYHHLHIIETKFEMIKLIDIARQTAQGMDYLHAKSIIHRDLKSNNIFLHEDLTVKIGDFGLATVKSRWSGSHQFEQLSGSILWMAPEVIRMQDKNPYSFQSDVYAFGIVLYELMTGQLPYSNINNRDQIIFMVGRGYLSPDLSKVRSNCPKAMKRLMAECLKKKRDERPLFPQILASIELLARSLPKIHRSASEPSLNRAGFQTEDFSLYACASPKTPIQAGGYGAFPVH

[17] = target: T1, Macrophage colony-stimulating factor 1 receptor; assay: Binding affinity to wild-type human partial length autoinhibited CSF1R (Y538 to S939 residues) expressed in mammalian expression system after 60 mins by Kinomescan method
[18] = target: Insulin-like growth factor 1 receptor (Homo sapiens) (UniProt P08069); assay: Inhibition of human IGF1R assessed as residual activity at 10 uM using KKKSPGEYVNIEFG as substrate preincubated for 20 mins followed by [gamma-33P]-ATP addition and measured after 120 mins by Hotspot assay relative to control
[19] = target: Tyrosine-protein kinase ABL1 (Homo sapiens, UniProt P00519, Q252H); assay: Binding affinity to human non-phosphorylated ABL1 Q252H mutant (S229 to K512 residues) expressed in mammalian expression system after 60 mins by Kinomescan method
[20] = target: Tyrosine-protein kinase Lck (Homo sapiens, UniProt P06239); assay: Inhibition of human LCK using poly[Glu:Tyr] (4:1) as substrate preincubated for 20 mins followed by [gamma-33P]-ATP addition and measured after 120 mins by Hotspot assay
MV4-11 [21] = assay: Induction of apoptosis in human MV4-11 cells assessed as late apoptotic cells at 0.1 uM after 24 hrs by Annexin V-FITC/propidium iodide staining based flow cytometric analysis (reference value: 1.42%); type: functional
[22] = target: CDK9/cyclin T1 (Homo sapiens) (UniProt O60563+P50750); assay: Inhibition of human CDK9/cyclin-T1 assessed as residual activity at 10 uM using KTFCGTPEYLAPEVRREPRILSEEEQEMFRDFDYIADWC as substrate preincubated for 20 mins followed by [gamma-33P]-ATP addition and measured after 120 mins by Hotspot assay relative to control; type: protein-complex assay
MV4-11 [23] = assay: Induction of apoptosis in human MV4-11 cells assessed as necrotic cells at 0.5 uM after 24 hrs by Annexin V-FITC/propidium iodide staining based flow cytometric analysis (reference value: 0%); type: functional
[24] = Intrinsic clearance in rat liver microsomes assessed per mg protein at 1 uM after 5 to 60 mins in presence of NADPH by LC-MS/MS analysis; type: ADME, Microsome; details: read-out: CLH
[25] = target: Serine/threonine-protein kinase Nek2 (Homo sapiens) (UniProt P51955); assay: Inhibition of human NEK2 assessed as residual activity at 10 uM using MBP as substrate preincubated for 20 mins followed by [gamma-33P]-ATP addition and measured after 120 mins by Hotspot assay relative to control
Chain of Serine/threonine-protein kinase Nek2 (Homo sapiens) (P51955 whole entry): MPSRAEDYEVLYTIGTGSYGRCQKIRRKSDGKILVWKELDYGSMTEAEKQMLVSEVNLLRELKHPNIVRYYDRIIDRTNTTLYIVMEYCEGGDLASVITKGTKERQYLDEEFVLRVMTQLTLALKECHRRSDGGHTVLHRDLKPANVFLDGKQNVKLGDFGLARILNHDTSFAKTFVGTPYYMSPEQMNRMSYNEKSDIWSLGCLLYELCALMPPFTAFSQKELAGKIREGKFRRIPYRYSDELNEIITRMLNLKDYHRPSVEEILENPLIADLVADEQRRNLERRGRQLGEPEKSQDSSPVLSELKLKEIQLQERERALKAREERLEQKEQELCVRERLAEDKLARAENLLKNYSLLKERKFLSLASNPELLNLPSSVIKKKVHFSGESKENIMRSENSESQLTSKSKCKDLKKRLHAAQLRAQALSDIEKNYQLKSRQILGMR

[26] = target: Serine/threonine-protein kinase Nek2 (Homo sapiens, UniProt P51955); assay: Inhibition of human NEK2 using MBP as substrate preincubated for 20 mins followed by [gamma-33P]-ATP addition and measured after 120 mins by Hotspot assay
Chain of Serine/threonine-protein kinase Nek2 (P51955 whole entry): as above

Chain of Discoidin domain-containing receptor 2 (Homo sapiens) (Q16832 whole entry, the tested form may be a part): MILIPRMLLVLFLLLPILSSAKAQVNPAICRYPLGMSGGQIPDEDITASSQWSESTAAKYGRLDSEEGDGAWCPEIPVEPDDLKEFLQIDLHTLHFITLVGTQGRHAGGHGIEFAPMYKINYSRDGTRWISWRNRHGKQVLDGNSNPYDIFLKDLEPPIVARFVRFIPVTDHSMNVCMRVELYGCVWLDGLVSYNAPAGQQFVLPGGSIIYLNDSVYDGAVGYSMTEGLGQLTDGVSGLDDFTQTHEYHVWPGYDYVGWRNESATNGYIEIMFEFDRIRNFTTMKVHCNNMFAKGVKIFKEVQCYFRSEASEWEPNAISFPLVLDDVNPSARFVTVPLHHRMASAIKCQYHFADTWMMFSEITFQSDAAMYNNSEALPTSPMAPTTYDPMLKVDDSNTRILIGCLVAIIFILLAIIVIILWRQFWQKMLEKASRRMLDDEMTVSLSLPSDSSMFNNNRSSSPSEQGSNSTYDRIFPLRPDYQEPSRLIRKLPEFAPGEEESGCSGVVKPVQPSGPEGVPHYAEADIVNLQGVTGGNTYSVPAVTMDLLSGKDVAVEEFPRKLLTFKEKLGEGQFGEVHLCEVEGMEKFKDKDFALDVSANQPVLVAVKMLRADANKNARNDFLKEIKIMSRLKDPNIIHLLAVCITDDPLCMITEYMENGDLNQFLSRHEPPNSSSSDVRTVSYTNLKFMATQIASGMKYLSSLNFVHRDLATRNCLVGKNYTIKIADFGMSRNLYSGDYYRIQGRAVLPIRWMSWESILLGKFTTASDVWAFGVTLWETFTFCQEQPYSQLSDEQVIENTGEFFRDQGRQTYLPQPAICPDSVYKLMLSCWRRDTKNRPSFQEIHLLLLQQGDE

Work on `CN1CCC(Nc2ccc(C(=O)Nc3cc(-c4cc(C#N)cs4)n[nH]3)cc2)CC1` yielded an Activity [1] of 20.6%, an Activity [2] of 66.8% and an IC50 [3] of 2400 nM. It also gave an Activity (MV4-11 [4]) of 26.68%, an Activity [5] of 91.9% and an Activity [6] of 80.7%. For the same molecule, the viability at 1 µM (MV4-11 [7]) was 34.5%, the Activity [8] was 4.66% and the Activity [9] was 66.2%. For the same molecule, the Activity (MV4-11 [10]) was “Non-Toxic”, the Activity (MV4-11 [11]) was 11.3% and the Activity (MV4-11 [12]) was 21.77%. The Kd [13] was 370 nM, the Activity [14] was 89.6% and the Activity (MV4-11 [15]) was 14.8%. For the same molecule, the Activity [16] was 67.7%, the Kd [17] was 84 nM and the Activity [18] was 94.8%. It also gave a Kd [19] of 350 nM, an IC50 [20] of 1010 nM and an Activity (MV4-11 [21]) of 15.97%. For the same molecule, the Activity [22] was 68.7%, the Activity (MV4-11 [23]) was 4.89% and the microsomal CLint at 1 µM [24] was 171 µL/min/mg. It also gave an Activity [25] of 11% and an IC50 [26] of 2090 nM.
